Legend:
[1] = The drug is tested on Bacteroides sp. WH2 strain: WH2 for biotransformation. The drug concentrations were measured before and after a 12-h incubation by liquid-chromatography-coupled mass spectrometry (LC–MS); details: bacteroides sp. wh2, 12 h, 2 µM
[2] = The drug is tested on Enterobacter cancerogenus strain: ATCC35316 for biotransformation. The drug concentrations were measured before and after a 12-h incubation by liquid-chromatography-coupled mass spectrometry (LC–MS); details: 2 µM
[3] = The drug is tested on Bacteroides uniformis strain: ATCC8492 for biotransformation. The drug concentrations were measured before and after a 12-h incubation by liquid-chromatography-coupled mass spectrometry (LC–MS); details: 2 µM
[4] = limosilactobacillus reuteri cf48-3a, 12 h, 2 µM
Description: The drug is tested on Lactobacillus reuteri CF48-3A strain: BEI HM-102 for biotransformation. The drug concentrations were measured before and after a 12-h incubation by liquid-chromatography-coupled mass spectrometry (LC–MS)

[5] = The drug is tested on Clostridium symbiosum strain: ATCC14940 for biotransformation. The drug concentrations were measured before and after a 12-h incubation by liquid-chromatography-coupled mass spectrometry (LC–MS); details: 2 µM
[6] = bacteroides fragilis, 12 h, 2 µM
Description: The drug is tested on Bacteroides fragilis strain: NCTC 9343 for biotransformation. The drug concentrations were measured before and after a 12-h incubation by liquid-chromatography-coupled mass spectrometry (LC–MS)

[7] = The drug is tested on Bacteroides fragilis strain: HMW615 for biotransformation. The drug concentrations were measured before and after a 12-h incubation by liquid-chromatography-coupled mass spectrometry (LC–MS); details: 2 µM
[8] = The drug is tested on Anaerococcus hydrogenalis strain: DSM7454 for biotransformation. The drug concentrations were measured before and after a 12-h incubation by liquid-chromatography-coupled mass spectrometry (LC–MS); details: 2 µM
[9] = bacteroides eggerthii, 12 h, 2 µM
Description: The drug is tested on Bacteroides eggerthii strain: DSM20697 for biotransformation. The drug concentrations were measured before and after a 12-h incubation by liquid-chromatography-coupled mass spectrometry (LC–MS)

[10] = The drug is tested on Escherichia coli strain: BW25113 for biotransformation. The drug concentrations were measured before and after a 12-h incubation by liquid-chromatography-coupled mass spectrometry (LC–MS); details: 2 µM
[11] = The drug is tested on Edwardsiella tarda strain: ATCC23685 for biotransformation. The drug concentrations were measured before and after a 12-h incubation by liquid-chromatography-coupled mass spectrometry (LC–MS); details: 2 µM
[12] = The drug is tested on Bacteroides dorei strain: DSM17855 for biotransformation. The drug concentrations were measured before and after a 12-h incubation by liquid-chromatography-coupled mass spectrometry (LC–MS); details: phocaeicola dorei, 2 µM
[13] = The drug is tested on Eubacterium rectale strain: ATCC33656 for biotransformation. The drug concentrations were measured before and after a 12-h incubation by liquid-chromatography-coupled mass spectrometry (LC–MS); details: agathobacter rectalis, 2 µM
[14] = The drug is tested on Enterococcus faecalis strain: V583 for biotransformation. The drug concentrations were measured before and after a 12-h incubation by liquid-chromatography-coupled mass spectrometry (LC–MS); details: 2 µM
[15] = The drug is tested on Odoribacter splanchnicus strain: fecal isolate for biotransformation. The drug concentrations were measured before and after a 12-h incubation by liquid-chromatography-coupled mass spectrometry (LC–MS); details: 2 µM
[16] = The drug is tested on Clostridium asparagiforme strain: DSM15981 for biotransformation. The drug concentrations were measured before and after a 12-h incubation by liquid-chromatography-coupled mass spectrometry (LC–MS); format: ADME; design: dose 2 uM, timepoint 0 vs 12 hours; details: enterocloster asparagiformis, 2 µM
[17] = The drug is tested on Eubacterium hallii strain: DSM3353 for biotransformation. The drug concentrations were measured before and after a 12-h incubation by liquid-chromatography-coupled mass spectrometry (LC–MS); details: anaerobutyricum hallii, 2 µM
[18] = parabacteroides distasonis, 12 h, 2 µM
Description: The drug is tested on Parabacteroides distasonis strain: ATCC8503 for biotransformation. The drug concentrations were measured before and after a 12-h incubation by liquid-chromatography-coupled mass spectrometry (LC–MS)

[19] = The drug is tested on Bacteroides coprophilus strain: DSM18228 for biotransformation. The drug concentrations were measured before and after a 12-h incubation by liquid-chromatography-coupled mass spectrometry (LC–MS); details: 2 µM
[20] = The drug is tested on Bifidobacterium breve strain: DSM20213 for biotransformation. The drug concentrations were measured before and after a 12-h incubation by liquid-chromatography-coupled mass spectrometry (LC–MS); details: 2 µM

| SMILES | Bacterial Biotransformation [1] | Bacterial Biotransformation [2] | Bacterial Biotransformation [3] | Bacterial Biotransformation [4] | Bacterial Biotransformation [5] | Bacterial Biotransformation [6] | Bacterial Biotransformation [7] | Bacterial Biotransformation [8] | Bacterial Biotransformation [9] | Bacterial Biotransformation [10] | Bacterial Biotransformation [11] | Bacterial Biotransformation [12] | Bacterial Biotransformation [13] | Bacterial Biotransformation [14] | Bacterial Biotransformation [15] | Bacterial Biotransformation [16] | Bacterial Biotransformation [17] | Bacterial Biotransformation [18] | Bacterial Biotransformation [19] | Bacterial Biotransformation [20] |
| --- | --- | --- | --- | --- | --- | --- | --- | --- | --- | --- | --- | --- | --- | --- | --- | --- | --- | --- | --- | --- |
| Cc1nc(-c2ccc(OCC(C)C)c(C#N)c2)sc1C(=O)O [FEBUXOSTAT] | Compound NOT metabolized | Compound NOT metabolized | Compound metabolized | Compound NOT metabolized | Compound NOT metabolized | Compound NOT metabolized | Compound NOT metabolized | Compound NOT metabolized | Compound NOT metabolized | Compound NOT metabolized | Compound NOT metabolized | Compound metabolized | Compound NOT metabolized | Compound NOT metabolized | Compound metabolized | Compound NOT metabolized | Compound NOT metabolized | Compound NOT metabolized | – | – |
| C[C@@H](CO)NC(=O)[C@@H]1C=C2c3cccc4[nH]cc(c34)C[C@H]2N(C)C1.O=C(O)/C=C\C(=O)O [ERGONOVINE MALEATE] | Compound metabolized | Compound metabolized | Compound metabolized | Compound metabolized | Compound metabolized | Compound metabolized | Compound metabolized | Compound metabolized | – | Compound NOT metabolized | Compound NOT metabolized | Compound metabolized | Compound NOT metabolized | Compound NOT metabolized | Compound metabolized | Compound metabolized | – | – | Compound metabolized | – |
| Cc1ccc(-c2nc3ccc(C)cn3c2CC(=O)N(C)C)cc1 [ZOLPIDEM] | Compound NOT metabolized | Compound NOT metabolized | Compound NOT metabolized | Compound NOT metabolized | Compound NOT metabolized | Compound NOT metabolized | Compound NOT metabolized | Compound NOT metabolized | – | Compound NOT metabolized | Compound NOT metabolized | – | Compound NOT metabolized | Compound NOT metabolized | Compound NOT metabolized | Compound NOT metabolized | Compound NOT metabolized | – | – | Compound NOT metabolized |
| CCN(C)C(=O)Oc1cccc([C@H](C)N(C)C)c1.O=C(O)C(O)C(O)C(=O)O [RIVASTIGMINE TARTRATE] | Compound NOT metabolized | Compound NOT metabolized | Compound NOT metabolized | Compound NOT metabolized | Compound NOT metabolized | – | Compound NOT metabolized | Compound NOT metabolized | Compound NOT metabolized | Compound NOT metabolized | Compound NOT metabolized | – | Compound NOT metabolized | Compound NOT metabolized | Compound NOT metabolized | Compound NOT metabolized | Compound NOT metabolized | Compound NOT metabolized | – | Compound NOT metabolized |
| CC(=O)OCC(=O)[C@@]1(O)[C@@H](C)C[C@H]2[C@@H]3CCC4=CC(=O)C=C[C@]4(C)[C@@]3(F)[C@@H](O)C[C@@]21C [BETAMETHASONE ACETATE] | Compound NOT metabolized | Compound NOT metabolized | – | Compound NOT metabolized | Compound NOT metabolized | Compound metabolized | Compound metabolized | Compound NOT metabolized | – | Compound NOT metabolized | Compound NOT metabolized | Compound metabolized | Compound NOT metabolized | Compound NOT metabolized | Compound metabolized | Compound NOT metabolized | – | – | Compound metabolized | – |
| CCCCC1=NC2(CCCC2)C(=O)N1Cc1ccc(-c2ccccc2-c2nnn[nH]2)cc1 [IRBESARTAN] | Compound metabolized | Compound metabolized | Compound metabolized | Compound metabolized | Compound metabolized | Compound metabolized | Compound metabolized | Compound metabolized | – | Compound metabolized | Compound metabolized | Compound metabolized | Compound NOT metabolized | Compound NOT metabolized | Compound metabolized | Compound metabolized | Compound metabolized | Compound metabolized | Compound NOT metabolized | – |
| CC(O)(CS(=O)(=O)c1ccc(F)cc1)C(=O)Nc1ccc(C#N)c(C(F)(F)F)c1 (configuration not stated) [BICALUTAMIDE] | Compound NOT metabolized | Compound metabolized | Compound NOT metabolized | Compound NOT metabolized | Compound NOT metabolized | – | Compound metabolized | Compound NOT metabolized | Compound NOT metabolized | Compound metabolized | Compound NOT metabolized | – | Compound NOT metabolized | Compound NOT metabolized | Compound metabolized | Compound NOT metabolized | Compound NOT metabolized | Compound metabolized | Compound NOT metabolized | – |

From ChEMBL document CHEMBL5303573, “Mapping human microbiome drug metabolism by gut bacteria and their genes” (Nature, 2019)
